Among the test systems are OVCAR-3 ovarian; IGROV1 ovarian; EKVX NSCLC; HT29 colon; U251 CNS; MALME-3M melanoma; MOLT-4 leukemia; CCRF-CEM leukemia; ACHN renal; M14 melanoma.
Experiment in all cases: inhibition of tumour cell growth, NCI panel, 48 h

Structures are written as SMILES.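 Test compounds were applied to cells in 96-well plates for 48 hours at 5 doses. Here, GI50 denotes the concentration required for 50% inhibition of growth. TGI: total growth inhibition.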 Some results are limits rather than exact numbers.

Take `CCCCC/C(C=C(C#N)C#N)=C/c1ccccc1`: the GI50 with OVCAR-3 ovarian was 2.26 µM; with IGROV1 ovarian it was 8.18 µM; with EKVX NSCLC, 5.98 µM; in the experiment on HT29 colon, 3.61 µM; in the experiment with U251 CNS, 3.03 µM; in the experiment with MALME-3M melanoma, 3.11 µM. In addition, the GI50 with MOLT-4 leukemia was 2.37 µM; with CCRF-CEM leukemia, 2.51 µM; in the experiment with ACHN renal it was 4.53 µM; in the experiment with M14 melanoma, 2.45 µM. The TGI is 11.2 µM in the experiment on OVCAR-3 ovarian; 27.7 µM in the experiment on IGROV1 ovarian; more than 55.7 µM in the experiment with EKVX NSCLC; 12.3 µM in the experiment with HT29 colon; 14.1 µM with U251 CNS; 16.5 µM in the experiment on MALME-3M melanoma. In addition, the TGI with MOLT-4 leukemia was 6.98 µM; with CCRF-CEM leukemia, 6.96 µM; in the experiment on ACHN renal it was 16.5 µM; in the experiment on M14 melanoma, 7.29 µM.

For the compound `COC(=O)CCCCN=Cc1c(O)c(O)c(C(C)C)c2cc(C)c(-c3c(C)cc4c(C(C)C)c(O)c(O)c(C=NCCCCC(=O)OC)c4c3O)c(O)c12`, the GI50 with OVCAR-3 ovarian is 1.02 µM; in the experiment on IGROV1 ovarian, 1.41 µM; with EKVX NSCLC, 0.924 µM; with HT29 colon, 0.978 µM; with U251 CNS, 0.58 µM; in the experiment on MALME-3M melanoma, 1.47 µM. The GI50 with MOLT-4 leukemia is 0.783 µM; in the experiment with CCRF-CEM leukemia, 0.746 µM; with ACHN renal it was 1.15 µM; in the experiment with M14 melanoma it was 1.23 µM. Also, the TGI in the experiment on OVCAR-3 ovarian is more than 32.5 µM; in the experiment on IGROV1 ovarian it was more than 32.5 µM; in the experiment on EKVX NSCLC, more than 32.5 µM; in the experiment with HT29 colon, 17.1 µM; with U251 CNS it was 4.05 µM; in the experiment on MALME-3M melanoma, more than 32.5 µM. Further, the TGI in the experiment on MOLT-4 leukemia was 19.2 µM; with CCRF-CEM leukemia, 17.5 µM; in the experiment with ACHN renal, more than 32.5 µM; with M14 melanoma, 13.5 µM.

With `CC1OC(n2cc(F)c(=O)[nH]c2=O)CCC1O` (centres undefined), the TGI in the experiment on OVCAR-3 ovarian, in the experiment with IGROV1 ovarian, with EKVX NSCLC, with HT29 colon, in the experiment with U251 CNS and in the experiment with MALME-3M melanoma was more than 100 µM in each case. The TGI in the experiment with MOLT-4 leukemia, in the experiment on CCRF-CEM leukemia, with ACHN renal and in the experiment on M14 melanoma was more than 100 µM throughout.

Take `CC1OC(O[C@H]2C[C@@H](O)[C@]3(CO)[C@H]4[C@H](O)C[C@]5(C)[C@@H](C6=CC(=O)OC6)CC[C@]5(O)[C@@H]4CC[C@]3(O)C2)C(O)C(O)C1O` (some centres undefined): the GI50 is 19.8 µM in the experiment on OVCAR-3 ovarian; 19.7 µM with IGROV1 ovarian; 16.5 µM with EKVX NSCLC; 19.5 µM in the experiment on HT29 colon; 18.8 µM in the experiment on U251 CNS; 19.5 µM with MALME-3M melanoma. In addition, the GI50 in the experiment on MOLT-4 leukemia was 17.9 µM; in the experiment with ACHN renal, 20.2 µM; with M14 melanoma it was 27.7 µM. Moreover, the TGI is 40.7 µM with OVCAR-3 ovarian; 36.7 µM in the experiment with IGROV1 ovarian; 30.5 µM in the experiment with EKVX NSCLC; 36 µM in the experiment with HT29 colon; 33.7 µM in the experiment with U251 CNS; 35.9 µM with MALME-3M melanoma. In addition, the TGI with MOLT-4 leukemia is 41.8 µM; with CCRF-CEM leukemia, 52.5 µM; in the experiment with ACHN renal, 35.5 µM; in the experiment on M14 melanoma, 87.5 µM.

For the compound `O=C1/C(=C/c2ccc(Br)cc2)C=C(c2ccccc2)N1CCc1ccccc1`, the GI50 was 1.78 µM in the experiment on OVCAR-3 ovarian; 1.71 µM with IGROV1 ovarian; 1.95 µM with EKVX NSCLC; 4.73 µM with HT29 colon; 0.761 µM with U251 CNS; 1.5 µM with MALME-3M melanoma. Further, the GI50 with MOLT-4 leukemia was 18.4 µM; with CCRF-CEM leukemia it was 7.76 µM; in the experiment on ACHN renal, 0.65 µM; with M14 melanoma it was 3.53 µM. Further, the TGI was 7.34 µM in the experiment with OVCAR-3 ovarian; 12 µM in the experiment with IGROV1 ovarian; 19 µM in the experiment on EKVX NSCLC; more than 100 µM in the experiment on HT29 colon; 10.1 µM in the experiment on U251 CNS; 6.64 µM with MALME-3M melanoma. Moreover, the TGI was more than 100 µM with MOLT-4 leukemia, more than 100 µM in the experiment on CCRF-CEM leukemia, 11 µM in the experiment with ACHN renal and 71.8 µM in the experiment with M14 melanoma.

Consider `CC(=O)Nc1ccccc1Sc1ccccc1`, for which the TGI with OVCAR-3 ovarian, with IGROV1 ovarian, in the experiment with EKVX NSCLC, in the experiment with HT29 colon, in the experiment with U251 CNS and in the experiment on MALME-3M melanoma was more than 100 µM throughout. In addition, the TGI with MOLT-4 leukemia, in the experiment with CCRF-CEM leukemia, in the experiment with ACHN renal and in the experiment with M14 melanoma was more than 100 µM throughout.

Regarding `O=C(NCCOCCOCCNc1cccc2c1C(=O)N(C1CCCNC1=O)C2=O)c1cc2c(o1)C(=O)c1ccccc1C2=O` (centres undefined), the GI50 in the experiment on OVCAR-3 ovarian was 0.682 µM; in the experiment with IGROV1 ovarian, 1.99 µM; with EKVX NSCLC, 2.88 µM; in the experiment with HT29 colon it was 2.93 µM; with U251 CNS, 1.9 µM; in the experiment on MALME-3M melanoma it was 0.176 µM. In addition, the GI50 is 2.4 µM with MOLT-4 leukemia, 4.48 µM in the experiment on CCRF-CEM leukemia, 2.29 µM with ACHN renal and 0.772 µM in the experiment with M14 melanoma. For the same compound, the TGI in the experiment with OVCAR-3 ovarian is 2.69 µM; in the experiment with IGROV1 ovarian, 5.33 µM; in the experiment with EKVX NSCLC it was 10.1 µM; with HT29 colon it was 8.05 µM; in the experiment with U251 CNS, 3.9 µM; with MALME-3M melanoma it was 0.401 µM. Also, the TGI is 6.01 µM in the experiment on MOLT-4 leukemia, more than 100 µM in the experiment with CCRF-CEM leukemia, 6.5 µM with ACHN renal and 2.18 µM in the experiment on M14 melanoma.

On to `CC1(C)CC(/C=C2/OC(=O)c3ccccc32)=C(C#N)C(=O)O1`, for which the TGI in the experiment on OVCAR-3 ovarian, in the experiment with IGROV1 ovarian, in the experiment with EKVX NSCLC, with HT29 colon, in the experiment with U251 CNS and in the experiment with MALME-3M melanoma was more than 100 µM each time. The TGI in the experiment on MOLT-4 leukemia, with CCRF-CEM leukemia, in the experiment with ACHN renal and in the experiment with M14 melanoma was more than 100 µM each time.

Take `O=C(CN1CCOCC1)Nc1ccc(Cn2nnc3c2C(=O)c2nnn(Cc4ccc(NC(=O)CN5CCOCC5)cc4)c2C3=O)cc1`: the GI50 was 0.25 µM in the experiment with OVCAR-3 ovarian; 0.361 µM in the experiment with IGROV1 ovarian; 1.38 µM in the experiment with EKVX NSCLC; 0.364 µM in the experiment with HT29 colon; 0.305 µM with U251 CNS; 0.178 µM with MALME-3M melanoma. The GI50 in the experiment with MOLT-4 leukemia is 0.254 µM; in the experiment on CCRF-CEM leukemia it was 0.233 µM; with ACHN renal, 4.01 µM; with M14 melanoma it was 0.596 µM. For the same compound, the TGI with OVCAR-3 ovarian turned out to be 0.836 µM; in the experiment on IGROV1 ovarian it was 1.64 µM; in the experiment with EKVX NSCLC, 2.98 µM; in the experiment with HT29 colon, 1.53 µM; in the experiment on U251 CNS it was 0.942 µM; in the experiment with MALME-3M melanoma, 0.469 µM. For the same compound, the TGI in the experiment with MOLT-4 leukemia was 0.705 µM; in the experiment on CCRF-CEM leukemia, 1.6 µM; in the experiment with ACHN renal, 20.2 µM; in the experiment with M14 melanoma, 1.88 µM.

These data come from PubChem BioAssay (NCI).
